What follows are molecules tested against 5-HT2A (Homo sapiens (Human), UniProt P28223) (assay: Radioligand binding assay, [^3H]5-HT competition, 5-HT2A). Conditions: [^3H]5-HT radioligand, membranes of HEK293 cells expressing recombinant 5-HT2A; Ki from IC50 by Cheng-Prusoff; read-out: 5-HT2A serotonin binding Ki value.
Chain of 5-HT2A (P28223 whole entry): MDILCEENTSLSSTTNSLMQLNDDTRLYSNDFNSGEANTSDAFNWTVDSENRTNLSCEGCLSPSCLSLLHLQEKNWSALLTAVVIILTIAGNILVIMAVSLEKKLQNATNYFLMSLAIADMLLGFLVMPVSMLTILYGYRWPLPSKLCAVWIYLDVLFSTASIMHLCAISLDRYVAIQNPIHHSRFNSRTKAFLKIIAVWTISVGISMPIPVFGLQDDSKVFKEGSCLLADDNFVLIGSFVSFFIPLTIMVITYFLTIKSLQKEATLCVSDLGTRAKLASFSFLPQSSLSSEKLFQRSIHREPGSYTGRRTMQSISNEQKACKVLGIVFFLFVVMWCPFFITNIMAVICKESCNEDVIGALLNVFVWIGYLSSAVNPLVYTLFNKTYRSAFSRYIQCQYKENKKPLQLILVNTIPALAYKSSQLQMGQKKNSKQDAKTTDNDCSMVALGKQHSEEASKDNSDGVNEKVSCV
`Cc1ncnc(C)c1-c1cc(NC(=O)Cc2ccccc2)ccc1OCCN1CCCC1` [Compound 251, N-(3-(4,6-dimethylpyrimidin-5-yl)-4-(2-(pyrrolidin-1-yl)ethoxy)phenyl)-2-phenylacetamide] gave a Ki of 2.05 nM.
In the case of `Cc1ncnc(C)c1-c1cc(NC(=O)C(C)c2ccccc2)ccc1OCCN1CCCC1` (stereo not drawn) [Compound 252, N-(3-(4,6-dimethylpyrimidin-5-yl)-4-(2-(pyrrolidin-1-yl)ethoxy)phenyl)-2-phenylpropanamide], the Ki is reported as 9.53 nM.
`Cc1ncnc(C)c1-c1cc(NC(=O)C2(c3ccccc3)CC2)ccc1OCCN1CCCC1` [Compound 253, N-(3-(4,6-dimethylpyrimidin-5-yl)-4-(2-(pyrrolidin-1-yl)ethoxy)phenyl)-1-phenylcyclopropane-1-carboxamide] showed a Ki of 6.34 nM.
`Cc1ncnc(C)c1-c1cc(NC(=O)Cc2ccc(F)cc2)ccc1OCCN1CCCC1` [Compound 254, N-(3-(4,6-dimethylpyrimidin-5-yl)-4-(2-(pyrrolidin-1-yl)ethoxy)phenyl)-2-(4-fluorophenyl)acetamide] was tested, and the Ki was 1.3 nM.
`Cc1ncnc(C)c1-c1cc(NC(=O)CCc2ccccc2)ccc1OCCN1CCCC1` [Compound 255, N-(3-(4,6-dimethylpyrimidin-5-yl)-4-(2-(pyrrolidin-1-yl)ethoxy)phenyl)-3-phenylpropanamide] gave a Ki of 1.72 nM.
For `Cc1ncnc(C)c1-c1cc(NC(=O)CCc2cocn2)ccc1OCCN1CCCC1` [Compound 258, N-[3-(4,6-dimethylpyrimidin-5-yl)-4-(2-pyrrolidin-1-ylethoxy)phenyl]-3-oxazol-4-yl-propanamide], the Ki was 10.8 nM.
Work on `Cc1nc(CCC(=O)Nc2ccc(OCCN3CCCC3)c(-c3c(C)ncnc3C)c2)co1` [Compound 259, N-[3-(4,6-dimethylpyrimidin-5-yl)-4-(2-pyrrolidin-1-ylethoxy)phenyl]-3-(2-methyloxazol-4-yl)propanamide] yielded a Ki of 19.6 nM.
Work on `Cc1ncnc(C)c1-c1cc(NC(=O)Cc2cnco2)ccc1OCCN1CCCC1` [Compound 260, N-[3-(4,6-dimethylpyrimidin-5-yl)-4-(2-pyrrolidin-1-ylethoxy)phenyl]-2-oxazol-5-yl-acetamide] yielded a Ki of 63.3 nM.
`Cc1nc(CC(=O)Nc2ccc(OCCN3CCCC3)c(-c3c(C)ncnc3C)c2)no1` [Compound 261, N-(3-(4,6-dimethylpyrimidin-5-yl)-4-(2-(pyrrolidin-1-yl)ethoxy)phenyl)-2-(5-methyl-1,2,4-oxadiazol-3-yl)acetamide] was tested, and the Ki was 91.7 nM.
Work on `Cc1ncnc(C)c1-c1cc(NC(=O)Cc2ccon2)ccc1OCCN1CCCC1` [Compound 262, N-(3-(4,6-dimethylpyrimidin-5-yl)-4-(2-(pyrrolidin-1-yl)ethoxy)phenyl)-2-(isoxazol-3-yl)acetamide] yielded a Ki of 35.7 nM.
Work on `Cc1cc(CC(=O)Nc2ccc(OCCN3CCCC3)c(-c3c(C)ncnc3C)c2)on1` [Compound 264, N-(3-(4,6-dimethylpyrimidin-5-yl)-4-(2-(pyrrolidin-1-yl)ethoxy)phenyl)-2-(3-methylisoxazol-5-yl)acetamide] yielded a Ki of 9.18 nM.
`Cc1noc(CC(=O)Nc2ccc(OCCN3CCCC3)c(-c3c(C)ncnc3C)c2)n1` [Compound 265, N-(3-(4,6-dimethylpyrimidin-5-yl)-4-(2-(pyrrolidin-1-yl)ethoxy)phenyl)-2-(3-methyl-1,2,4-oxadiazol-5-yl)acetamide] gave a Ki of 18.2 nM.
Work on `Cc1ncnc(C)c1-c1cc(NC(=O)Cc2cc(C)n(C)n2)ccc1OCCN1CCCC1` [Compound 267, 2-(1,5-dimethyl-1H-pyrazol-3-yl)-N-(3-(4,6-dimethylpyrimidin-5-yl)-4-(2-(pyrrolidin-1-yl)ethoxy)phenyl)acetamide] yielded a Ki of 692 nM.
For `Cc1ncnc(C)c1-c1cc(NC(=O)Cc2ccn(C)n2)ccc1OCCN1CCCC1` [Compound 269, N-[3-(4,6-dimethylpyrimidin-5-yl)-4-(2-pyrrolidin-1-ylethoxy)phenyl]-2-(1-methylpyrazol-3-yl)acetamide], the Ki was 559 nM.
With `Cc1ncnc(C)c1-c1cc(NC(=O)CCc2ccn(C)n2)ccc1OCCN1CCCC1` [Compound 270, N-[3-(4,6-dimethylpyrimidin-5-yl)-4-(2-pyrrolidin-1-ylethoxy)phenyl]-3-(1-methylpyrazol-3-yl)propanamide] the Ki was 51.6 nM.
Work on `COc1cccc(CC(=O)Nc2ccc(OCCN3CCCC3)c(-c3c(C)ncnc3C)c2)c1` [Compound 274, N-(3-(4,6-dimethylpyrimidin-5-yl)-4-(2-(pyrrolidin-1-yl)ethoxy)phenyl)-2-(3-methoxyphenyl)acetamide] yielded a Ki of 3.92 nM.
With `Cc1ncnc(C)c1-c1cc(NC(=O)Cc2cncc(F)c2)ccc1OCCN1CCCC1` [Compound 277, N-(3-(4,6-dimethylpyrimidin-5-yl)-4-(2-(pyrrolidin-1-yl)ethoxy)phenyl)-2-(5-fluoropyridin-3-yl)acetamide] the Ki was 33.4 nM.
Molecule `Cc1ncnc(C)c1-c1cc(NC(=O)Cc2ccc(F)cn2)ccc1OCCN1CCCC1` [Compound 278, N-(3-(4,6-dimethylpyrimidin-5-yl)-4-(2-(pyrrolidin-1-yl)ethoxy)phenyl)-2-(5-fluoropyridin-2-yl)acetamide] has a Ki of 32.6 nM.
`Cc1ncnc(C)c1-c1cc(N(C)C(=O)C2CC2)ccc1OCCN1CCCC1` [Compound 279, N-[3-(4,6-dimethylpyrimidin-5-yl)-4-(2-pyrrolidin-1-ylethoxy)phenyl]-N-methyl-cyclopropanecarboxamide] showed a Ki of 65800 nM.
Molecule `Cc1ncnc(C)c1-c1cc(N(C)C(=O)c2ccnn2C)ccc1OCCN1CCCC1` [Compound 280, N-[3-(4,6-dimethylpyrimidin-5-yl)-4-(2-pyrrolidin-1-ylethoxy)phenyl]-N,2-dimethyl-pyrazole-3-carboxamide] has a Ki of 65800 nM.
`Cc1ncnc(C)c1-c1cc(NC(=O)CCF)ccc1OCCN1CCCC1` [Compound 281, N-[3-(4,6-dimethylpyrimidin-5-yl)-4-(2-pyrrolidin-1-ylethoxy)phenyl]-3-fluoro-propanamide] was tested, and the Ki was 30.6 nM.
For `Cc1ncnc(C)c1-c1cc(NC(=O)CCCF)ccc1OCCN1CCCC1` [Compound 282, N-[3-(4,6-dimethylpyrimidin-5-yl)-4-(2-pyrrolidin-1-ylethoxy)phenyl]-4-fluoro-butanamide], the Ki was 8.84 nM.
`Cc1ncnc(C)c1-c1cc(NC(=O)C2(O)CC2)ccc1OCCN1CCCC1` [Compound 283, N-[3-(4,6-dimethylpyrimidin-5-yl)-4-(2-pyrrolidin-1-ylethoxy)phenyl]-1-hydroxy-cyclopropanecarboxamide] showed a Ki of 24 nM.
In the case of `COC(C)(C)C(=O)Nc1ccc(OCCN2CCCC2)c(-c2c(C)ncnc2C)c1` [Compound 284, N-[3-(4,6-dimethylpyrimidin-5-yl)-4-(2-pyrrolidin-1-ylethoxy)phenyl]-2-methoxy-2-methyl-propanamide], the Ki is reported as 87.5 nM.
Molecule `CCOC1(C(=O)Nc2ccc(OCCN3CCCC3)c(-c3c(C)ncnc3C)c2)CC1` [Compound 285, N-[3-(4,6-dimethylpyrimidin-5-yl)-4-(2-pyrrolidin-1-ylethoxy)phenyl]-1-ethoxy-cyclopropanecarboxamide] has a Ki of 33.4 nM.
With `COC1(C(=O)Nc2ccc(OCCN3CCCC3)c(-c3c(C)ncnc3C)c2)CCC1` [Compound 286, N-[3-(4,6-dimethylpyrimidin-5-yl)-4-(2-pyrrolidin-1-ylethoxy)phenyl]-1-methoxy-cyclobutanecarboxamide] the Ki was 10.1 nM.
Work on `Cc1ncnc(C)c1-c1cc(NC(=O)CN2CCCC2)ccc1OCCN1CCCC1` [Compound 287, N-[3-(4,6-dimethylpyrimidin-5-yl)-4-(2-pyrrolidin-1-ylethoxy)phenyl]-2-pyrrolidin-1-yl-acetamide] yielded a Ki of 3250 nM.

— patent US20250270172A1, “Pyrimidine Derivatives As Modulators of the 5-HT2A Serotonin Receptor Useful For The Treatment of Disorders Related Thereto” (Arena Pharmaceuticals, Inc., priority 2020, published 2025)
